One experiment concerns the target GDP-KRASG12C::SOS1 (Homo sapiens, UniProt P01116, C118S/C51S/C80L/G12C). The experiment in a line: Alpha Screen PPI assay. Type of experiment: biochemical. The settings on record: for IC50: Alpha Screen, duplicate. As for the experimental part: (§1) 221 Measurements of various protein–protein interactions were performed using the Alpha
(§2) 222 Screen technology developed by Perkin Elmer. Recombinant RAS proteins (H-, N-, K-
(§3) 223 RAS variants; all KRAS variants are based on KRAS isoform 4B (uniprot id P01116-2);
(§4) 224 KRAS (G12D) 1-169, N-terminal 6His-tag, C-terminal avi-tag was from Xtal
(§5) 225 BioStructures, Inc., KRAS (G12C) 1-169, C-terminal avi-tag, biotinylated, mutations:
(§6) 226 C51S, C80L, C118S, NRAS(wt) 1-172, C-terminal avi-tag, biotinylated; HRAS(wt) 1-
(§7) 227 166, C-terminal avi-tag, biotinylated). Biotinylation was performed in vitro with
(§8) 228 recombinant BirA biotin-protein ligase as recommended by the manufacturer (Avidity
(§9) 229 LLC, Aurora, Colorado, USA). Interacting proteins such as SOS1 (564-1049, N-terminal
(§10) 230 GST-tag, TEV cleavage site), cRaf (1-303, N-terminal GST-tag, TEV cleavage site) and
(§11) 231 PI3KA- RBD (160-317, N-term-HIS_GST-tag) were expressed as glutathione S
(§12) 232 transferase (GST) fusions. Accordingly, the Alpha Screen beads were glutathione coated
(§13) 233 Alpha Lisa acceptor beads (Perkin Elmer AL 109 R) and Alpha Screen Streptavidin
(§14) 234 conjugated donor beads (Perkin Elmer 6760002L). Nucleotides were purchased from
(§15) 236 interaction assays were carried out in PBS, containing 0.1% bovine serum albumin,
(§16) 237 0,05% Tween-20 and 10 µM of the corresponding nucleotide. Assays were carried out in
(§17) 238 white ProxiPlate-384 Plus plates (Perkin Elmer #6008280) in a final volume of 20 µL. In
(§18) 239 brief, biotinylated RAS proteins (10 nM final concentration) and GST-SOS1, GST-PI3K
(§19) 240 or GST-CRAF (10 nM final) were mixed with glutathione acceptor beads (5 µg/mL final
(§20) 241 concentration) in buffer, containing the corresponding nucleotides (GDP or GTP for
(§21) 242 assays containing SOS1, only GTP for interaction assays containing PI3K or CRAF) and
(§22) 243 were incubated for 30 min at room temperature. After addition of streptavidin donor
(§23) 244 beads (5 µg/mL final concentration) under green light, the mixture was further incubated
(§24) 245 for 60 min in the dark at room temperature. Single oxygen induced fluorescence was
(§25) 246 measured at an Enspire multimode plate reader (Perkin Elmer) according to the
(§26) 247 manufacturer’s recommendations. […]

The target of another experiment is T1, GDP-KRASG12D::SOS1 (Homo sapiens, UniProt P01116, G12D).
T1 construct: KRAS (G12D) 1-169, N-terminal 6His-tag, C-terminal avi-tag was from Xtal; 6His-tag (N); purchased Xtal BioStructures, Inc
The experiment in a line: Alpha Screen PPI assay. The settings on record: for IC50: Alpha Screen, duplicate. Type of experiment: biochemical. As for the experimental part: as §1, §2, §3, §4, §5, §6, §7, §8, §9, §10, §11, §12, §13, §14, §15, §16, §17, §18, §19, §20, §21, §22, §23, §24, §25, §26

Another experiment addresses GTP-KRASG12C::CRAF (Homo sapiens, UniProt P01116, C118S/C51S/C80L/G12C). The experiment in a line: Alpha Screen PPI assay. The format is biochemical. To be noted: duplicate. As for the experimental part:
as §1, §2, §3, §4, §5, §6, §7, §8, §9, §10, §11, §12, §13, §14, §15, §16, §17, §18, §19, §20, §21, §22, §23, §24, §25, §26

For a further experiment, the target named is GTP-KRASG12C::PI3Kα (Homo sapiens, UniProt P01116, C118S/C51S/C80L/G12C). Put plainly: Alpha Screen PPI assay. Type of experiment: biochemical. The settings on record: duplicate, read-out: IC50 GTP-KRASG12C::PI3K. As for the experimental part: as §1, §2, §3, §4, §5, §6, §7, §8, §9, §10, §11, §12, §13, §14, §15, §16, §17, §18, §19, §20, §21, §22, §23, §24, §25, §26

The next experiment addresses GTP-KRASG12C::SOS1 (Homo sapiens, UniProt P01116, C118S/C51S/C80L/G12C). The experiment in a line: Alpha Screen PPI assay. To be noted: duplicate. The format is biochemical. As for the experimental part: as §1, §2, §3, §4, §5, §6, §7, §8, §9, §10, §11, §12, §13, §14, §15, §16, §17, §18, §19, §20, §21, §22, §23, §24, §25, §26
Another experiment relates to KRAS. The experiment in a line: Alpha Screen PPI assays, summary over KRAS interactions (SOS1, CRAF, PI3Kα). Type of experiment: biochemical, human.
Excerpt: Using biochemical assays, we investigated whether 1 inhibited 3 of the 4 PPIs important for KRAS cycling (Fig. 5 A, i–iii). Namely, 1) GDP-KRAS interaction with the catalytic site of SOS ([33]), 2) GTP-KRAS interaction with the allosteric site of SOS ([34]), and 3) GTP-KRAS interaction with downstream effectors (CRAF and PI3Kα). We were unable to establish a biochemical assay for the fourth intervention point, namely, 4) GTP-KRAS interaction with its GAPs (Fig. 5 A, iv). As a reference compound for these assays, we used the KRAS^G12C-specific covalent inhibitor ARS-1620 ([35]). Compound 1 inhibited all 3 RAS cycle intervention points (1 to 3) in a dose-dependent manner (Fig. 5 B–E) in the range of 100 to 770 nM (SI Appendix, Table S6).
217 The coordinates and structure factors of the structures have been deposited at the
218 Protein Data Bank with the accession codes PDB Code 6GJ5, 6GJ6, 6GJ7, 6GJ8.
as §1, §2, §3, §4, §5, §6, §7, §8, §9, §10
231 PI3KA- RBD (160-317, N-term-HIS_GST-tag) were expressed as glutathione S […]
as §24, §25
247 manufacturer’s recommendations. Data were analyzed using the GraphPad Prism data […]

This is an account of results in publication PMC6689897, “Drugging an undruggable pocket on KRAS” (Proceedings of the National Academy of Sciences of the …, 2019).

SMILES strings stand for the structures. Where only a bound is given, the exact number is not on record here.

With `C=CC(=O)N1CCN(c2ncnc3c(F)c(-c4c(O)cccc4F)c(Cl)cc23)CC1` [ARS-1620, reference compound], on GDP-KRASG12C::SOS1, the “activity on the GDP-dependent KRAS^G12C::SOS1 interaction” value is given as “displayed activity”. Further, the IC50 was 590 nM at GDP-KRASG12C::SOS1; over 10000 nM on GDP-KRASG12D::SOS1; over 10000 nM against GTP-KRASG12C::CRAF; over 10000 nM on GTP-KRASG12C::PI3Kα; over 10000 nM on GTP-KRASG12C::SOS1. Besides, on GDP-KRASG12D::SOS1, the “inhibition of GDP-dependent interaction with G12D instead of G12C” value is recorded as “lost the ability to inhibit”. Also, in the experiment with KRAS, the “activity in all GTP-dependent KRAS assays” value was “inactive”.

As to `Cn1cnc(Cn2ccc3ccc(CNCc4[nH]c5ccccc5c4[C@H]4NC(=O)c5ccc(O)cc54)cc32)c1` [Compound 1], the IC50 was 450 nM against GDP-KRASG12C::SOS1; 260 nM on GDP-KRASG12D::SOS1; 180 nM on GTP-KRASG12C::CRAF; 100 nM on GTP-KRASG12C::PI3Kα; 360 nM at GTP-KRASG12C::SOS1; 100 to 770 nM with KRAS (GDP-KRAS::SOS, GTP-KRAS::SOS, GTP-KRAS::effectors (CRAF, PI3Kα), read-out: inhibition of all 3 RAS cycle intervention points, range). For the same compound, the “inhibition of GDP-dependent interaction with G12D instead of G12C” value against GDP-KRASG12D::SOS1 is given as “maintained the inhibitory function”.
